According to patent US10286033B2, “Methods and compositions comprising desmopressin in combination with an alpha-adrenergic receptor antagonist” (Serenity Pharmaceuticals, LLC, priority 2014, dated 2019):
Marks after values point to notes of the source that are not given here.

Experiments:
[1] = Clinical study of desmopressin nasal spray on the occurrence of nocturnal voiding (Responder / Non-Responder); format: in vivo, human
Description: A clinical study was performed to evaluate the impact of administering desmopressin in combination with an alpha-adrenergic receptor antagonist alone or together with a 5-alpha reductase inhibitor to reduce the occurrence of nocturnal voiding by a patient. Experimental procedures and results are described below. […] Patients received as a nasal spray either (i) a 1.5 μg dosage of desmopressin or (ii) placebo. The desmopressin nasal spray (or placebo) was administered daily just prior to bedtime for a duration of twelve weeks. In addition, patients previously diagnosed as suffering from benign prostatic hyperplasia (BPH) and receiving an alpha-adrenergic receptor antagonist alone or together a 5-alpha reductase inhibitor for treatment of BPH continued to receive the alpha-adrenergic receptor antagonist alone or together the 5-alpha reductase inhibitor at the same dosage and frequency used prior to enrollment in this study. All patients in this study who received an alpha-adrenergic receptor antagonist alone or together a 5-alpha reductase inhibitor for treatment of their BPH had been receiving the alpha-adrenergic receptor antagonist alone or together the 5-alpha reductase inhibitor for at least 2 months before enrollment in this study and experienced on average at least two nocturnal voids per night before enrollment in this study. The desmopressin nasal spray was prepared by combining aliquots of an Emulsion Stock Solution and a Buffer Solution as described below. To produce an emulsion stock solution, the following ingredients in parts by weight are added to a vessel equipped with a stirring bar, and mixed for 15 minutes at 60-65° C.: (i) 180 parts sorbitan monolaurate (Span-20) aqueous solution (12 mg/mL); (ii) 30 parts Polysorbate 20 (Tween-20) aqueous solution (2 mg/mL); (iii) 400 parts cottonseed oil aqueous emulsion (26.6 mg/mL); (iv) 600 parts cyclopentadecanolide (CPE-215) aqueous emulsion (40 mg/mL); and (v) water to produce 1,500 grams total batch size. After mixing, the preparation is homogenized using a high speed mixture at 6500 RPM+ for 20-25 minutes to produce a fine emulsion. This solution is autoclaved to assure sterility. To produce a citric acid buffer stock solution, the following ingredients in parts by weight are added to a vessel equipped with a stirring bar, and mixed for 5 minutes at 60-65° C.: (i) 6200 parts water; (ii) 16 parts anhydrous citric acid aqueous solution (1.85 mg/mL); (iii) 76 parts sodium citrate, dihydrate aqueous solution (8.9 mg/mL); (iv) 104 parts Polysorbate 20 (Tween-20) aqueous solution (12 mg/mL); and (v) water to produce 8,500 grams total batch size. To produce a desmopressin stock solution, 0.111 part desmopressin acetate trihydrate is added to sufficient buffer stock solution to produce 100.0 mL of solution, and stirred until all the desmopressin is dissolved to produce a stock solution having a concentration of 100 μg desmopressin/mL. From this stock solution a 30 μg/mL solution was prepared by dilution. To produce the desmopressin nasal spray, aliquots of the 30 μg/mL solution were filtered to eliminate any bacterial contamination and diluted with an equal volume of emulsion stock solution to produce aseptic, preservative free dose forms comprising 15 μg/mL desmopressin, pH 5.5, containing 2% cyclopentadecanolide. These were bottled in sterile pump spray bottles fitted with a Pfeiffer APF pump sprayers that deliver 100 μL per metered spray (i.e., 1.5 μg desmopressin (i.e., 1500 ng desmopressin) per spray). The liquid contains no detectable microorganisms. Patients recorded the occurrence of nocturnal voids during the study period. Patients were designated to be a “Responder” if after receiving treatment there was a reduction in the average number of nocturnal voids during the treatment period.

[2] = human, in vivo; cited from earlier work
[3] = BPH patients also receiving alpha-adrenergic receptor antagonist and 5-alpha reductase inhibitor, 1.5 μg nasal spray, 12 weeks, n = 21
[4] = BPH patients on alpha-adrenergic receptor antagonist alone or together with 5-alpha reductase inhibitor, n = 21
[5] = BPH patients, no alpha-adrenergic receptor antagonist or 5-alpha reductase inhibitor, n = 42
[6] = male patients without BPH, desmopressin only, n = 34

NC(=O)CC[C@@H]1NC(=O)[C@H](Cc2ccccc2)NC(=O)[C@H](Cc2ccc(O)cc2)NC(=O)CCSSC[C@@H](C(=O)N2CCC[C@H]2C(=O)N[C@H](CCCN=C(N)N)C(=O)NCC(N)=O)NC(=O)[C@H](CC(N)=O)NC1=O [Desmopressin, 1-desamino-8-D-arginine vasopressin]
Non-Responder Patients: Number of Patients that Received Desmopressin ([1]; BPH patients also receiving alpha-adrenergic receptor antagonist (one patient also on an anticholinergic agent), 1.5 μg nasal spray, 12 weeks, n = 21): 7**
Non-Responder Patients: Number of Patients that Received Desmopressin [1, 3]: 2
Responder Patients: Number of Patients that Received Desmopressin [1, 3]: 5
Responder Patients: Number of Patients that Received Desmopressin ([1]; BPH patients also receiving alpha-adrenergic receptor antagonist, 1.5 μg nasal spray daily before bedtime, 12 weeks, n = 21 desmopressin group): 7
Difference in Responder Response Rate Between Desmopressin-treated Patients & Those Receiving Placebo ([1]; BPH patients on alpha-adrenergic receptor antagonist alone or together with 5-alpha reductase inhibitor): 31%
Difference in Responder Response Rate Between Desmopressin-treated Patients & Those Receiving Placebo ([1]; BPH patients on alpha-adrenergic receptor antagonist alone or together with 5-alpha reductase inhibitor, listed as desmopressin): 31%
Non-Responder Patients: Total Number of Patients that Received Desmopressin [1, 4]: 9
Percent Total Non-Responder Patients receiving desmopressin [1, 4]: 43%
Percent Total Responder Patients (absolute response rate) receiving desmopressin [1, 4]: 57%
Responder Patients: Total Number of Patients that Received Desmopressin [1, 4]: 12
Percent Total Responder Patients (absolute response rate) receiving desmopressin ([1]; BPH patients on alpha-adrenergic receptor antagonist alone or together with 5-alpha reductase inhibitor, n = 21, listed as desmopressin): 57%
Difference in Responder Response Rate Between Desmopressin-treated Patients & Those Receiving Placebo ([1]; BPH patients, no alpha-adrenergic receptor antagonist or 5-alpha reductase inhibitor): 14%
Difference in Responder Response Rate Between Desmopressin-treated Patients & Those Receiving Placebo ([1]; BPH patients, no alpha-adrenergic receptor antagonist or 5-alpha reductase inhibitor, listed as desmopressin): 14%
Non-Responder Patients: Number of Patients that Received Desmopressin [1, 5]: 24
Percent Total Non-Responder Patients receiving desmopressin [1, 5]: 57%
Percent Total Responder Patients (absolute response rate) receiving desmopressin [1, 5]: 43%
Responder Patients: Number of Patients that Received Desmopressin [1, 5]: 18
Percent Total Responder Patients (absolute response rate) receiving desmopressin ([1]; BPH patients, no alpha-adrenergic receptor antagonist or 5-alpha reductase inhibitor, n = 42, listed as desmopressin): 43%
Reduction in occurrence of nocturnal voiding, combination compared with single treatments (in words) ([1]; desmopressin with alpha-adrenergic receptor antagonist alone or together with 5-alpha reductase inhibitor, versus desmopressin alone or the antagonist(s) without desmopressin): greater percentage of patients experiencing a reduction in the occurrence of nocturnal voiding
Difference in Responder Response Rate Between Desmopressin-treated Patients & Those Receiving Placebo ([1]; male patients without BPH, desmopressin only): 18%
Difference in Responder Response Rate Between Desmopressin-treated Patients & Those Receiving Placebo ([1]; male patients without BPH, desmopressin only, listed as desmopressin): 18%
Non-Responder Patients: Number of Patients that Received Desmopressin [1, 6]: 16
Percent Total Non-Responder Patients receiving desmopressin [1, 6]: 47%
Percent Total Responder Patients (absolute response rate) receiving desmopressin [1, 6]: 53%
Responder Patients: Number of Patients that Received Desmopressin [1, 6]: 18
Percent Total Responder Patients (absolute response rate) receiving desmopressin ([1]; male patients without BPH, desmopressin only, n = 34, listed as desmopressin): 53%
half-life (known clearance rate) [2]: 1.5 to 2.0 h
